Data on eleven compounds can be found in US9624247B2, “Pyrazolo-pyrrolidin-4-one derivatives as bet inhibitors and their use in the treatment of disease” (NOVARTIS AG, priority 2013, dated 2017).

The structures appear in SMILES notation.

For experiment [1], the target named is BRD3 (His-Brd3(20-477)) (Homo sapiens (Human), UniProt Q15059). In words: TR-FRET in-vitro binding assay for BRD3. The settings on record: acetyl-histone H4 peptide. Background: Time-resolved FRET reads energy transfer from a long-lived donor to a nearby acceptor.
Sequence of BRD3 (His-Brd3(20-477)) (Q15059 20-477): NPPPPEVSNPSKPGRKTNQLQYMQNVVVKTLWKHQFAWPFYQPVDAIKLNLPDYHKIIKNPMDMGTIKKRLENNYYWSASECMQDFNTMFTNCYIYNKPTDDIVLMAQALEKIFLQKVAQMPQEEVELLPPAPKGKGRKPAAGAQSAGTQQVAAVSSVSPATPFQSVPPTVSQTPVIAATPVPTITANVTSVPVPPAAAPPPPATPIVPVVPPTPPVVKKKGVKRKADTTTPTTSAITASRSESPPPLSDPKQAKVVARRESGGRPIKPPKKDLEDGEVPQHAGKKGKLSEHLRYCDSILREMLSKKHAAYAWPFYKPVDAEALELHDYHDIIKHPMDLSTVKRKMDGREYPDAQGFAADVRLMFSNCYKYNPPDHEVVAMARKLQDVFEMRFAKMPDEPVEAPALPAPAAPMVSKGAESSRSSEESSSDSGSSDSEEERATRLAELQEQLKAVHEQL
Experiment [2] relates to THP-1 cells. In words: Cell growth inhibition assay (CellTiter-Glo), THP-1. Format: cell-based, human. The settings on record: THP-1, 4 days; for GI50: Homo sapiens, 96 h, half-maximal growth inhibition; for THP-1 TGI: total growth inhibition. In short, it runs like this: (§1)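 Leukemia cells were exposed for 4 days at 37 °C to 3-fold dilution series from 10 μM (0.1% DMSO), then viable cells were quantified by CellTiter-Glo ATP luminescence. Signal was corrected for background and a day-0 plate, with vehicle set at 100% and medium-only at −100%. IC50 and TGI were obtained by four-parameter fit.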

The test system of experiment [3] is MV-4-11 cells. Put plainly: Cell growth inhibition assay (CellTiter-Glo), MV-4-11. Format: cell-based, human. The conditions noted are these: MV-4-11, 4 days; for GI50: Homo sapiens, MV4-11, 96 h, half-maximal growth inhibition; for MV-4-11 TGI: total growth inhibition. An outline of the steps:
as §1
For orientation: Cellular ATP, detected with luciferase, serves as a proxy for viable cell number.

What is called IC50 is the concentration needed to halve the response being measured. Lower therefore signals inhibition by little substance. Broadly, the GI50 is the concentration at which growth is held to half of that of the control. Low readings indicate greater sensitivity of the cells, high ones lower sensitivity of the cells. In experiment [1], `Cc1cc(N2C(=O)c3c(C4CC4)nn(C)c3C2c2ccc(Cl)cc2)cn2c(C(F)F)nnc12` (racemic) [Example 3, 6-(4-chlorophenyl)-3-cyclopropyl-5-(3-(difluoromethyl)-8-methyl-[1,2,4]triazolo[4,3-a]pyridin-6-yl)-1-methyl-5,6-dihydropyrrolo[3,4-c]pyrazol-4(1H)-one] yielded an IC50 of less than 11 nM. In experiment [2], the GI50 turned out to be 12.4 nM and the “THP-1 TGI” value came to 29.45 nM. Moreover, in experiment [3], it took 9.49 nM to inhibit growth by half (GI50) and the “MV-4-11 TGI” value came out at 23.45 nM.
As for `COCCn1nc(C2CC2)c2c1C(c1ccc(Cl)cc1)N(c1cc(C)c3nnc(C)n3c1)C2=O` (racemic) [Example 4, 6-(4-chlorophenyl)-3-cyclopropyl-5-(3,8-dimethyl-[1,2,4]triazolo[4,3-a]pyridin-6-yl)-1-(2-methoxyethyl)-5,6-dihydropyrrolo[3,4-c]pyrazol-4(1H)-one], in experiment [1], the IC50 was less than 11 nM. Besides, in experiment [2], the GI50 came out at 11.9 nM and the “THP-1 TGI” value was 27.95 nM. Further, in experiment [3], it took 9.36 nM to inhibit growth by half (GI50) and the “MV-4-11 TGI” value is 20.8 nM.
Taken in the same sequence, the figures for `COc1cc(N2C(=O)c3c(C4CC4)nn(C)c3C2c2ccc(Cl)cc2)cn2c(C)nnc12` (racemic) [Example 5, 6-(4-chlorophenyl)-3-cyclopropyl-5-(8-methoxy-3-methyl-[1,2,4]triazolo[4,3-a]pyridin-6-yl)-1-methyl-5,6-dihydropyrrolo[3,4-c]pyrazol-4(1H)-one] were 44 nM, 81.4 nM, 147.5 nM, 64.9 nM and 104 nM.
In experiment [1], `Cc1cc(N2C(=O)c3c(C4CC4)nn(C)c3C2c2ccc(Cl)cc2)cn2c(CF)nnc12` (racemic) [Example 16, 6-(4-chlorophenyl)-3-cyclopropyl-5-(3-(fluoromethyl)-8-methyl-[1,2,4]triazolo[4,3-a]-pyridin-6-yl)-1-methyl-5,6-dihydropyrrolo[3,4-c]pyrazol-4(1H)-one] yielded an IC50 of 13 nM. In addition, in experiment [2], the GI50 was 18.7 nM and the “THP-1 TGI” value was found to be 51.6 nM. For the same compound, in experiment [3], the GI50 stood at 6.07 nM and the “MV-4-11 TGI” value is 11.3 nM.
For `Cc1cc(N2C(=O)c3c(C4CC4)nn(C)c3C2c2ccc(Cl)cc2)cn2c(C)nnc12` (stereo not shown) [Example 1, 6-(4-chlorophenyl)-3-cyclopropyl-5-(3,8-dimethyl-[1,2,4]triazolo[4,3-a]pyridin-6-yl)-1-methyl-5,6-dihydropyrrolo[3,4-c]pyrazol-4(1H)-one] the same measures were 31 nM, 9.6 nM, 20.4 nM, 5.42 nM and 10.7 nM.
Compound `Cc1cc(N2C(=O)c3c(C4CC4)nn(C)c3[C@H]2c2ccc(Cl)cc2)cn2c(C)nnc12` [Example 2, (R)-6-(4-chlorophenyl)-3-cyclopropyl-5-(3,8-dimethyl-[1,2,4]triazolo[4,3-a]pyridin-6-yl)-1-methyl-5,6-dihydropyrrolo[3,4-c]pyrazol-4(1H)-one] displayed an IC50 in experiment [1] of 12 nM. For the same compound, in experiment [2], the GI50 worked out at 6.37 nM and the “THP-1 TGI” value was found to be 14.95 nM. For the same compound, in experiment [3], it took 4.31 nM to inhibit growth by half (GI50) and the “MV-4-11 TGI” value turned out to be 11.21 nM.
Taken in the same sequence, the figures for `COc1cc(N2C(=O)c3c(C4CC4)nn(C)c3C2c2ccc(Cl)cc2)cc2c1nnn2C` (stereo not shown) [Example 6] were 25 nM, 63 nM, 118.1 nM, 44.5 nM and 90.25 nM.
For `Cc1cc(N2C(=O)c3c(C4CC4)nn(C)c3[C@H]2c2ccc(Cl)cc2)cn2c(C(F)F)nnc12` [Example 7, (R)-6-(4-chlorophenyl)-3-cyclopropyl-5-(3-(difluoromethyl)-8-methyl-[1,2,4]triazolo-[4,3-a]pyridin-6-yl)-1-methyl-5,6-dihydropyrrolo[3,4-c]pyrazol-4(1H)-one] the same measures were 12 nM, 5.65 nM, 14.8 nM, 2.45 nM and 6.275 nM.
In experiment [1], `COCCn1nc(C2CC2)c2c1C(c1ccc(Cl)cc1)N(c1cc(C)c3nnc(CF)n3c1)C2=O` (stereo not shown) [Example 18, 6-(4-chlorophenyl)-3-cyclopropyl-5-(3-(fluoromethyl)-8-methyl-[1,2,4]triazolo[4,3-a]-pyridin-6-yl)-1-(2-methoxyethyl)-5,6-dihydropyrrolo[3,4-c]pyrazol-4(1H)-one] displayed an IC50 of 24 nM. In addition, in experiment [2], halving of growth (GI50) required 19.2 nM and the “THP-1 TGI” value came to 46.45 nM. In addition, in experiment [3], the GI50 came to 6.73 nM and the “MV-4-11 TGI” value worked out at 13.25 nM.
Taken in the same sequence, the figures for `Cc1nnc2c(NC(=O)OC(C)(C)C)cc(N3C(=O)c4c(C5CC5)nn(C)c4C3c3ccc(Cl)cc3)cn12` (stereo not shown) [Example 27, tert-butyl (6-(6-(4-chlorophenyl)-3-cyclopropyl-1-methyl-4-oxopyrrolo[3,4-c]pyrazol-5(1H,4H,6H)-yl)-3-methyl-[1,2,4]triazolo[4,3-a]pyridin-8-yl)carbamate] were 65 nM, 22.8 nM, 44.65 nM, 11.1 nM and 22.6 nM.
For `CCOC(=O)Nc1cc(N2C(=O)c3c(C4CC4)nn(C)c3C2c2ccc(Cl)cc2)cn2c(C)nnc12` (stereo not shown) [Example 29, ethyl (6-(6-(4-chlorophenyl)-3-cyclopropyl-1-methyl-4-oxopyrrolo[3,4-c]pyrazol-5-(1H,4H,6H)-yl)-3-methyl-[1,2,4]triazolo[4,3-a]pyridin-8-yl)carbamate] the same measures were 22 nM, 2.59 nM, 7.62 nM, 1.13 nM and 1.97 nM.
